This is an account of results in ChEMBL document CHEMBL5728435, “Alpha-D-galactoside inhibitors of galectins” (2021).

For one assay, the target named is Galectin-1 (Homo sapiens, UniProt P09382). The assay can be described thus: (§1) Fluorescence Anisotropy Assay: Compounds for galectins were determined by a fluorescence anisotropy assay where the compound was used as an inhibitor of the interaction between galectin and a fluorescein tagged saccharide probe.
The target in a further assay is Galectin-3 (Homo sapiens, UniProt P17931). Described as §1.
Chain of Galectin-3 (P17931 whole entry): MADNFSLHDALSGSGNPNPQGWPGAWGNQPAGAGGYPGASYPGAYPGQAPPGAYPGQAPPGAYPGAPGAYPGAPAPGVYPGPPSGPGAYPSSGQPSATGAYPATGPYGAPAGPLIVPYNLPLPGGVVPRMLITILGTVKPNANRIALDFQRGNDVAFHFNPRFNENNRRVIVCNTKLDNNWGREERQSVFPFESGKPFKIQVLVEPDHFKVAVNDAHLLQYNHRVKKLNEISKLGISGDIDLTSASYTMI

Molecules are shown by their SMILES.

Chain of Galectin-1 (P09382 whole entry): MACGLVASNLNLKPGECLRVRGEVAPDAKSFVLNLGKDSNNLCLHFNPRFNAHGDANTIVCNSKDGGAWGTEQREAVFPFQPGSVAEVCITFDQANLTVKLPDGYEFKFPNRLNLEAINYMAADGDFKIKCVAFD

Regarding `OCC1O[C@H](Sc2cc(Cl)c(F)c(Cl)c2)C(O)[C@@H](n2cc(-c3nccs3)nn2)[C@H]1O` (some centres not stated), the figures for the equilibrium dissociation constant (Kd) on Galectin-1 and at Galectin-3 were 0.28 µM and 10 µM, respectively.
